How the values were obtained:
[1] = tested on: Baloxavir-resistant influenza A/PR/8/34 (H1N1) (PA I38T); format: cell-based, Influenza A virus; details: read-out: EC50 (mean ± SD)
[2] = tested on: Oseltamivir-resistant influenza virus strain A/Weiss/43 (H1N1)-5; experiment: microbe, parasite or virus in culture; format: cell-based; details: unidentified influenza virus, H1N1, MDCK, read-out: EC50 (mean ± SD)
[3] = tested on: Oseltamivir-resistant influenza virus strain A/Weiss/43 (H1N1)-4; experiment: microbe, parasite or virus in culture; format: cell-based; details: unidentified influenza virus, H1N1, MDCK, read-out: EC50 (mean ± SD)
[4] = tested on: influenza A virus with PA I38T substitution; details: cited from earlier work

Structure (SMILES) | EC50 [1] [nM] | EC50 [2] [nM] | EC50 [3] [nM] | EC50 change due to PA I38T substitution [4]
O=C(O)[C@H]1C2CCC(CC2)[C@@H]1Nc1nc(-c2n[nH]c3ncc(F)cc23)nc(C2CC2)c1F [ZSP1273] | 0.028 ± 0.013 | 0.017 ± 0.004 | 0.014 ± 0.006 | 
O=C1c2c(O)c(=O)ccn2N([C@@H]2c3ccccc3SCc3c2ccc(F)c3F)[C@@H]2COCCN12 [Baloxavir] | 89.4 ± 11.9 |  |  | 30-50 fold
CCOC(=O)C1=C[C@@H](OC(CC)CC)[C@H](NC(C)=O)[C@@H](N)C1 [Oseltamivir] |  | > 100000 | > 100000 | 
O=C(O)[C@H]1C2CCC(CC2)[C@@H]1Nc1nc(-c2c[nH]c3ncc(F)cc23)ncc1F [VX-787, reference compound] | 0.434 ± 0.052 | 0.216 ± 0.053 | 0.234 ± 0.094 | 

Source: paper PMC10056986 (Pharmaceuticals, 2023)
